In PubChem BioAssay AID179 (DTP/NCI, 2004) one finds EC50, IC50 and outcome data, which are given here for 69 molecules.

The structures appear in SMILES notation. Several values for one entry are separate records, joined by “and”; a condition that tells them apart may be missing. Equal entries are not always repeated. Activity calls are given as the source filed them.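 Rule for the calls: active = compounds giving half or more protection of infected cells from virus-caused growth loss, again on retest; inactive = the rest.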

The test system of this assay is CEM cells HIV-1 protection, formazan growth assay. The assay is described as follows: NCI AIDS Antiviral Assay. As to conditions: for IC50: measured here: growth of uninfected CEM cells. The method, boiled down: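 Screen of anti-HIV-1 activity in human CEM cells using a formazan-based growth measurement at five drug concentrations. Hits with 50% or greater protection were repeated, and confirmation required reproducible complete protection.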

The EC50 is the concentration needed to bring the measured effect to its halfway point. As usually defined, the IC50 is the midpoint of a concentration-inhibition curve. Low values mean greater potency in that assay, high ones weaker potency in that assay. For `CSc1nnc(SCc2nn3c(=O)cc(C)nc3s2)s1`, the EC50 was above 200 µM and the IC50 is above 200 µM.
In the case of `CC1(C)O[C@]2(C)CC[C@@H]1[C@@H](O)[C@@H]2N1CCCC1`, the EC50 was above 417 µM and the 50% inhibitory concentration (IC50) is above 417 µM.
Consider `CC(=O)[O-].CC(=O)[O-].O=C(N/N=C/c1cc(Cl)cc(Cl)c1[OH2+])c1ccncc1.[Zn+2]`, for which the outcome was inactive.
Take `COC(=O)[C@]1(C)CCC[C@]2(C)C3CC4OOC3(C=C4C(C)C)CCC21` (stereo partly drawn): the EC50 is above 251 µM and the IC50 was 11.5 µM.
As to `Cn1c2ccccc2c2cc(N3CCCC3)c3c(c21)C(=O)N(c1ccccc1)C3=O`, the EC50 was above 200 µM and the IC50 is above 200 µM.
Regarding `COC(=O)N1CCC(Sc2ccccc2)C2(CCOC(=O)c3ccccc3)CCC(O)C12` (stereo not drawn), the EC50 is above 40.7 µM and the IC50 is above 40.7 µM.
As for `O=C(O)Cc1ccc(Nc2nc3ccccc3nc2C(=O)O)cc1`, the EC50 was above 200 µM and the 50% inhibitory concentration (IC50) was above 200 µM.
Turning to `O=S(=O)(CSc1ccccc1)c1ccccc1`, the EC50 is above 490 µM and the IC50 came to 288 µM.
As to `OCC1=C[C@@H](O)[C@@H]2C=CO[C@@H](OC3OC(CO)C(O)C(O)C3O)[C@H]12` (stereo partly drawn), the EC50 is above 724 µM and the IC50 was above 724 µM.
For `CCOC(=O)c1c(-c2ccc(OC)cc2)c(C#N)c(=S)n(C2OC(COC(C)=O)C(OC(C)=O)C(OC(C)=O)C2OC(C)=O)c1C` (stereo not drawn), the EC50 is above 200 µM; the IC50 is 42.7 µM and 33.9 µM.
As for `Cc1nn(-c2ccccc2)c2c1CC(=O)Nc1ccccc1-2`, the EC50 was above 2 µM and the IC50 was 0.112 µM.
Taken in the same sequence, the figures for `CCOC(=O)c1nc2ccccc2nc1Oc1ccc(OC)cc1` were above 200 µM and above 200 µM.
On the same counts, the results for `O=P(O)(CN1CCN(CP(=O)(O)c2ccccc2)CCN(CP(=O)(O)c2ccccc2)CC1)c1ccccc1` are above 200 µM and 4.07 µM.
On the same counts, the results for `O=S(=O)(Cc1nc2ccccc2s1)c1nc2ccccc2s1` are above 200 µM and 4.79 µM.
Regarding `O=c1oc2cc(O)ccc2c(O)c1C(c1ccccc1F)c1c(O)c2ccc(O)cc2oc1=O`, the outcome was inactive.
Regarding `S=C(SSC(=S)N1CCCCC1)N1CCCCC1`, the EC50 was above 200 µM and the IC50 turned out to be 29.5 µM.
For `NC(CCP(=O)(O)CCC1C=CC=CC1)C(=O)O` (stereo not drawn), the EC50 is above 200 µM and the IC50 is above 200 µM.
In the case of `CCCCCCCCCCn1cccc1/C=C/c1ccc(/C=C/c2cccn2CCCCCCCCCC)cc1`, the outcome was inactive.
Turning to `Cc1cc(Br)cc(C)c1NC(=O)C(=O)Nn1c(=S)[nH]c2ccccc2c1=O`, the EC50 was above 209 µM and the IC50 is above 209 µM.
As for `Cc1cc(O)c2c(c1)OC1(C)CCC3C(C)(C)CCCC34COC2C14` (stereo not drawn), the EC50 was above 55 µM and the IC50 turned out to be 1.58 µM.
In the case of `O=C(O)CN(c1ccccc1Cl)S(=O)(=O)c1ccccc1`, the result was inactive.
On the same count and under the same terms, next, `Nc1cc(=O)[nH]c(SC2=NC(N)CC(O)C2)n1` (stereo not drawn): “inactive”.
Regarding `O=C(Sc1sc(=S)sc1SC(=O)c1ccccc1)c1ccccc1`, the EC50 was above 17.8 µM and the concentration for half-maximal inhibition (IC50) is above 17.8 µM.
In the case of `Cc1c(O)c(OC2OC(CO)C(O)C(O)C2O)cc2c1CC[C@@H]1C2(C)C(=O)C[C@]2(C)[C@@H]([C@@](C)(O)C(O)CCC(C)(C)O)[C@H](O)C[C@@]12C` (stereo partly drawn), the EC50 was above 200 µM and the IC50 is above 200 µM.
On to `O=c1cc2ccccc2nn1Cc1ccccc1Cl`, for which the EC50 was above 251 µM and the IC50 was above 251 µM.
In the case of `O=C1c2ccccc2C2(c3ccc(Cl)cc3)N[C@@H]3CCCC[C@@H]3N12` (stereo partly drawn), the EC50 was above 200 µM and the IC50 is above 200 µM.
For the molecule `COc1ccc2[nH]c3c(c2c1)[C@H](c1ccccc1)C[C@@H]1C(=O)N(c2ccccc2)C(=O)[C@H]31`, the result was inactive.
`CC1CN(c2cc3c(cc2F)c(=O)c(C(=O)O)cn3-c2ccc(F)cn2)CC(C)N1` (stereo not drawn): the EC50 is above 200 µM and the IC50 was above 200 µM.
`CCOC(=O)N1CCC2(CC1)C[C@](C)(C(C)=O)C(C)O2` (stereo partly drawn): the EC50 was above 200 µM and the IC50 is above 200 µM.
As for `CCCC1=NNc2n[nH]c(=S)n2N1`, the EC50 was above 132 µM and the IC50 came to 58.9 µM.
Taken in the same sequence, the figures for `S=C(NCCc1ccccn1)c1nc[nH]c1C(=S)NCCc1ccccn1` were above 200 µM and 19.1 µM.
On the same counts, the results for `C=C1CC(CCCl)(c2ccccc2)OC1=O` (stereo not drawn) are above 41.7 µM and 6.46 µM.
On the same counts, the results for `N#C/C(=C1\SCC(=O)N1c1ccccc1)c1nc2ccccc2[nH]1` are above 4.37 µM and above 4.37 µM.
On to `CC(=O)OCCCCn1cnc2nc(Nc3ccccc3)nc(Cl)c21`, for which the EC50 is above 200 µM and the concentration for half-maximal inhibition (IC50) was 135 µM.
For `COc1ccc2[nH]cc([C@@H]3C4CCC(C4)[C@H]3NCc3cccc(CN[C@H]4C5CCC(C5)[C@@H]4c4c[nH]c5ccc(OC)cc45)c3)c2c1`, the EC50 is above 2 µM; the IC50 was 0.324 µM and 0.617 µM.
`Cc1ccccc1/C=C/c1csnn1`: the EC50 was above 129 µM and the IC50 was above 129 µM.
For `C=C(C)[C@@H]1CC[C@]2(COC(=O)CC(C)(CC)CC(=O)O)CC[C@]3(C)[C@H](CC[C@@H]4[C@@]5(C)CC[C@H](OC(=O)CC(C)(CC)CC(=O)O)C(C)(C)[C@@H]5CC[C@]43C)[C@@H]12` (stereo partly drawn), the EC50 is above 200 µM and the IC50 worked out at 9.55 µM.
On to `COC12CCCN1c1ccn(Cc3ccccc3)c(=O)c1C2=O` (stereo not drawn), for which the result was inactive.
Consider `O=C(Nc1ccc(C2=NCCN2)cc1)c1cncc(C(=O)Nc2ccc(C3=NCCN3)cc2)c1`, for which the EC50 was 9.77 µM and the IC50 was 132 µM.
Taken in the same sequence, the figures for `COc1ccc(/C=C2\C(=O)N(NC(C)=O)c3ccccc32)cc1` were above 309 µM and 52.5 µM.
On the same counts, the results for `O=C(CC/C(C/C(=N/O)c1ccc(F)cc1)=N/O)N(Cc1ccccc1)Cc1ccccc1` are above 112 µM and above 112 µM.
On the same counts, the results for `NC(=O)c1cc(N(CCO)CCO)c([N+](=O)[O-])cc1[N+](=O)[O-]` are above 200 µM and above 200 µM.
As for `Cc1ccc(N(C=O)c2c([N+](=O)[O-])cc([N+](=O)[O-])c3c2=[N+]([O-])CN=3)cc1`, the EC50 was above 7.59 µM and the half-inhibitory concentration (IC50) was above 7.59 µM.
Turning to `CCOC(=O)/C=C/[C@H](O[Si](CC)(CC)CC)C(C)(C)C`, the EC50 is above 200 µM and the IC50 was above 200 µM.
As to `CC1(C)CC(=O)c2c(nc(SSc3nc4c(c(-c5ccc(Br)cc5)c3C#N)C(=O)CC(C)(C)C4)c(C#N)c2-c2ccc(Br)cc2)C1`, the half-maximal effective concentration (EC50) is 18.6 µM and the IC50 came out at 162 µM.
On the same counts, the results for `Cn1c(=O)c2c(nc3n2CC(=O)N3CCCCl)n(C)c1=O` are 85.1 µM and above 200 µM.
Taken in the same sequence, the figures for `CSC(=NCCCCN=C(NS(=O)(=O)c1ccc(Cl)cc1)SC)NS(=O)(=O)c1ccc(Cl)cc1` were above 200 µM and above 200 µM.
On the same counts, the results for `O=C1CC23CCCC2(C1)CC(=O)C3` (stereo not drawn) are above 126 µM and above 126 µM.
Consider `N#Cc1c(N)oc(-c2ccc([N+](=O)[O-])cc2)c1C#N`, for which the EC50 is above 200 µM and the IC50 was 67.6 µM.
Taken in the same sequence, the figures for `O=c1[nH]nc(-c2ccccc2)n1/N=C\c1ccccc1` were above 200 µM and above 200 µM.
Turning to `CCCCCCSCC(NC(=O)CCC(N)C(=O)O)C(=O)NCC(=O)O` (stereo not drawn), the EC50 was above 24 µM and the IC50 is above 24 µM.
On to `Cc1cc(Cl)ccc1NC(=O)CCCC(=O)C1CCCC1=O` (stereo not drawn), for which the result was inactive.
Take `CC1=NN=C(N)NC1=CC(Sc1ccc(Cl)cc1)c1c(O)ccc2ccccc12` (stereo not drawn): the EC50 is above 200 µM and the IC50 turned out to be 11.2 µM.
On the same counts, the results for `C#C/C=C\CCCC/C=C\C#CC#CCCCC#CC#C[C@H](COS(=O)(=O)O)OS(=O)(=O)O` are 30.9 µM and above 200 µM.
`CC(C)C(C(=O)O)n1[se]c2ccccc2c1=O` (stereo not drawn): the EC50 is 15.5 µM and the IC50 was determined as 120 µM.
Regarding `NC(=S)Nc1nnc(-c2ccc(-c3nnc(NC(N)=S)o3)cc2)o1`, the result was inactive.
`CCOP(=O)(OCC)c1c(C(=O)OC)cc(=O)[nH]c1-c1ccc(C)cc1`: the EC50 was above 200 µM and the IC50 turned out to be 7.94 µM.
For `O=C(O)CC(NC(=O)/C(=C/c1ccccc1O)NC(=O)c1ccccc1)C(=O)O` (stereo not drawn), the EC50 is above 200 µM and the IC50 is 110 µM.
Taken in the same sequence, the figures for `Cc1ccnc(NS(=O)(=O)c2ccc(NC(=O)c3ccc4nc5ccccc5c(Nc5ccc(S(=O)(=O)Nc6nccc(C)n6)cc5)c4c3)cc2)n1` were above 200 µM and 83.2 µM.
On the same counts, the results for `O=c1oc2ccccc2cc1-c1ccccc1` are above 162 µM and above 162 µM.
Regarding `O=C(NN1C(=O)C(Cl)C1c1c(O)ccc2ccccc12)c1ccccc1O` (stereo not drawn), the EC50 was above 67.6 µM and the IC50 was above 67.6 µM.
On to `C[CH2][Sn]([CH2]C)([O]C(=O)c1ccccc1OC)[O][Sn]([CH2]C)([CH2]C)[O]C(=O)c1ccccc1OC`, for which the EC50 is above 38.9 µM and the IC50 is 29.5 µM.
On the same counts, the results for `CC(C)(C)CC(C)(C)c1ccc(O)c(SSc2cc(C(C)(C)CC(C)(C)C)ccc2O)c1` are above 200 µM and 25.7 µM.
Consider `C1=CC=C(N=P(c2ccccc2)(c2ccccc2)c2ccccc2)CC=C1`, for which the outcome was inactive.
On to `CCOc1c(OC)cc(-c2nc3n(n2)C(=O)C(CC)S3)cc1OC` (stereo not drawn), for which the EC50 is above 200 µM and the IC50 is above 200 µM.
With `Nc1nn2cc3c(nc2c1N=Nc1ccccc1)-c1ccccc1C3`, the EC50 was above 200 µM and the IC50 was above 200 µM.
For `COc1cc2c(cc1OC)C1(c3ccccc3)ON=C(c3ccccc3)N1CS2` (stereo not drawn), the EC50 was above 9.33 µM and the half-maximal inhibitory concentration (IC50) was above 9.33 µM.
In the case of `c1ccc2c(c1)CCCc1cc3ccccc3nc1-2`, the EC50 is above 55 µM and the IC50 was above 55 µM.
As to `O=[N+]([O-])c1cc(S(=O)(=O)c2ccc(O)c([N+](=O)[O-])c2)ccc1O`, the EC50 was above 200 µM and the IC50 is above 100 µM.
